Each block holds one molecule with its values, some of them ahead of it.
Legend:
[1] = system: Arabidopsis thaliana (wild-type Col-0); assay: Root growth and lateral root formation of Arabidopsis; assay type: in vivo; details: 10 nM, two weeks after transfer
Protocol: To investigate in vivo effect of the new derivatives on the root growth and development, seeds of Arabidopsis thaliana (wild-type Col-0) were surface sterilized and sown on vertical plates on half-strength Murashige-Skoog medium (supplied with 0.1% sucrose and 6 g/L phytagel) containing 10 nM BAP or 10 nM 1,2,3-thiadiazol-5-yl-urea derivative, or 0.01% DMSO (solvent control). After vernalization (4 days in the dark, 4° C.) plates were transferred into the growth chamber (22° C., 16/8 light/dark). Two weeks after transfer, seedlings were photographed and root elongation and lateral root formation was scored using Scion image software (Scion Corp., Frederick, Md., USA). At least 40 plants were measured for each treatment.

[2] = Toxicity towards human skin fibroblasts (Calcein AM assay); assay type: cell-based
Protocol: Cytotoxicity of the compounds to human skin fibroblasts (BJ cell line) was determined in a standard Calceinovém AM test. Cells were maintained in plastic tissue culture flasks and grown in Dulbecco's modified Eagle's medium for cell culture (DMEM) at 37° C. in 5% CO2 and 100% humidity. Cells were placed into 96-well microtiter plates (Nunc, Denmark) and after 12 hours pre-incubation, the tested compound was added to a final concentration ranging from […]. Cells were incubated for 72 hours. At the end of incubation period Calcein AM was added in PBS to a final concentration of […]. After 1 hour of incubation fluorescence was measured at 485/538 nm (ex/em wavelength) using Fluoroskan Ascent (Labsystems, Finland). IC50 values (the concentration causing reduction of calcein AM conversion to 50%) were calculated from the curves obtained. All experiments were repeated four times with a maximum deviation of 15%. Due to the limited solubility of substances in water, all the tested compounds were dissolved in DMSO and diluted with water to a final concentration.

[3] = system: detached leaf segments of Triticum aestivum cv. Hereward; assay: Senescence bioassay on wheat leaf segments in dark/light conditions; details: foliar, 168 h, dark/light 8/16, 22° C., 7 days, read-out: Senescence bioassay (IC50)
Protocol: (§1) Seeds of winter wheat, Triticum aestivum cv. Hereward, were washed under running water for 24 hours and then sown on perlite soaked with Hogland's solution. They were placed in the growth chamber at 25° C. with a 16/8 h light period at 50 μmol·m^−2·s^−1. After 7 days, the first leaf was fully developed and the second leaf had started to grow. A tip section of the first leaf, approximately 4 cm long, was removed from 4 seedlings and trimmed slightly to a combined weight of 100 mg. The basal ends of the four leaf tips were placed into the 96-wells plate containing 150 μL of the tested derivative solution each. The entire plate was inserted into a plastic box lined with paper tissues soaked in distilled water to prevent leaf sections from drying out. After 96 h incubation in the dark at 25° C., the leaves were removed and chlorophyll extracted by heating at 80° C. for 10 min in 5 mL of 80% ethanol (v/v). The sample volume was then restored to 5 mL by the addition of 80% ethanol (v/v). The absorbance of the extract was recorded at 665 nm. In addition, chlorophyll extracts from fresh leaves and leaf tips incubated in deionised water were measured. The results are means of five replicates and the entire test was repeated at least twice. […] The compounds to be tested were dissolved in dimethylsulfoxide (DMSO) and the solution brought up to 10^−3 M with distilled water. […] The IC50 values were determined for standard (BAP) and novel tested compounds.
The ability of the novel compounds to retard chlorophyll degradation in detached wheat leaves was tested also in the light conditions. The experiment was performed as described in Example 7 with modifications as follows—the incubation of the leaves with the compounds was done in the dark/light conditions 8/16 (light—100 μmol·m^−2·s^−1) at 22° C. for 7 days. […] The newly prepared substituted 1,2,3-thiadiazol-5-yl urea derivatives of the invention are much stronger anti-senescent compounds in comparison to the BAP in retarding senescence under optimal (dark/light) conditions.

[4] = system: detached leaves of Triticum aestivum cv. Hereward; assay: Membrane lipid peroxidation (MDA, TBA method) in detached wheat leaves in the dark; details: four days in the dark
Protocol: A typical symptom associated with senescence as a direct consequence of increased reactive oxygen species is membrane lipid peroxidation which produces malondialdehyde (MDA). Therefore the levels of MDA, a decomposition product of lipid peroxidation, were measured in detached wheat leaves that were exposed to the prepared novel derivatives or BAP for four days in the dark as described in Example 7. MDA levels were measured using a thiobarbituric acid (TBA) method. In detail, 100 mg of fresh plant material was homogenized by high speed shaking in a ball mill (MM301, Retsch, Germany) with 1 mL of 70% methanol. The crude extract was centrifuged at 10,000×g for 5 min, and 100 μL aliquot of supernatant was vortexed with 100 μL of 0.5% (w/v) TBA containing 0.1% (w/v) trichloroacetic acid, and the resulting solution was then incubated for 30 min at 95° C. The samples were quickly cooled on ice and centrifuged for 5 min at 1000 g. The absorbance of supernatant was measured at 532 nm with background subtraction at 600 nm and the amount of MDA-TBA complex was calculated from the coefficient of absorbance 155 mM^−1 cm^−1.

[5] = system: detached leaf segments of Triticum aestivum cv. Hereward; assay: Senescence bioassay on wheat leaf segments in dark conditions; details: Triticum aestivum, foliar; dark, 96 h, 25° C., chlorophyll absorbance 665 nm; read-out: Senescence bioassay (IC50)
Protocol: as §1

wheat leaves = assay: Ethylene production (defoliating activity) assay; design: species or system Triticum aestivum; details: 10 μM, 96 h in the dark at 25° C.; control 270 (±15)
Protocol: We investigated the effect of the compounds of the invention on ethylene production in wheat leaves. The leaves were obtained as described in Example 8, placed in 5 mL glass vials and immersed at 10 μM solutions of tested compounds of the invention or TDZ. Distilled water was used as a control treatment. After 96 h incubation in the dark at 25° C., 1 mL of air was taken from the vials and content of ethylene in it was determined using gas chromatography with the flame ionization detector (GC-FID) method described by Fišerová et al. (Fišerová H, Kula E, Klemš M, Reinöhl V (2001) Phytohormones as indicators of the degree of damage in birch (Betula pendula). Biológia 56: 405-409).

winter oilseed rape = assay: Field experiment, winter oilseed rape, foliar spray; assay type: in vivo; details: 25 μM foliar spray, BBCH 50
Protocol: (§2) All field experiments were done according to criteria for Good Experimental Practices. Six repetitions (10 m^2 each) were used per one variant. Field trials were not treated by growth regulators and fungicides, except of applied compound 1-furfuryl-[1,2,3]thiadiazol-5-yl-urea. N-furfuryl-N′-1,2,3-thiadiazol-5-yl-urea was applied once at the precise time (extension growth BBCH 50), by foliar spray at a concentration of 25 μM. For each variant at least 50 plants were used to obtain morphology parameters. Statistical evaluation was executed in stat. program PAST v. 2.17c.

spring barley = assay: Field experiments, spring barley, years 2014 and 2015, foliar spray; assay type: in vivo
Protocol: as §2
All field experiments were done according to criteria for Good Experimental Practices as described in example 17. N-furfuryl-N′-1,2,3-thiadiazol-5-yl-urea was applied once at the precise time (extension growth BBCH 50), by foliar spray at a concentration of 25 μM in a year 2014 and at a concentration of 5 μM in a year 2015. For each variant at least 50 plants were used to obtain morphology parameters. Statistical evaluation was executed in stat. program PAST v. 2.17c.

IC50 [3]: 0.42 µM | IC50 [5]: 11.2 µM
SMILES: O=C(NCC1CCCO1)Nc1cnns1 (stereo not drawn) [Compound 75, 1-(tetrahydro-furan-2-yl-methyl)-3-[1,2,3]thiadiazol-5-yl-urea]
Lateral root number [1]: 17 (±6) | Primary root lenght [1]: 44 (±16) mm | CC50 at 72 h [2]: > 100 µM | MDA [4]: 15.2 (±0.7) nmol/g FW | Ethylene produced (wheat leaves): 282 (±19) nL/g FW

SMILES: O=C(NCc1ccco1)Nc1cnns1 [N-furfuryl-N′-1,2,3-thiadiazol-5-yl-urea]
Seed yield, % of control (winter oilseed rape): 120.9% | WTK, % of control (winter oilseed rape): 110% | Seed yield, % of control (spring barley; Year 2014, 25 μM foliar spray): 104.8% | grains per ear, % of control (spring barley; Year 2014, 25 μM foliar spray): 104.6% | Seed yield, % of control (spring barley; Year 2015, 5 μM foliar spray): 106.8%

From patent US9993002B2, “1,2,3-thiadiazol-5yl-urea derivatives, use thereof for regulating plant senescence and preparations containing these derivatives” (USTAV EXPERIMENTALNI BOTANIKY AV CR, V.V.I., priority 2014, dated 2018)
